Values quoted from earlier work as cited in publication PMC9516332 (Frontiers in Oncology, 2022).
Like-named read-outs stand apart in the source and are kept apart here.

What was measured:
Conditions in all cases: cited from earlier work
[1] = molecular target: T1, panel of 255 wild-type kinases (Homo sapiens, UniProt O00141)
T1 sequence (O00141 1-431): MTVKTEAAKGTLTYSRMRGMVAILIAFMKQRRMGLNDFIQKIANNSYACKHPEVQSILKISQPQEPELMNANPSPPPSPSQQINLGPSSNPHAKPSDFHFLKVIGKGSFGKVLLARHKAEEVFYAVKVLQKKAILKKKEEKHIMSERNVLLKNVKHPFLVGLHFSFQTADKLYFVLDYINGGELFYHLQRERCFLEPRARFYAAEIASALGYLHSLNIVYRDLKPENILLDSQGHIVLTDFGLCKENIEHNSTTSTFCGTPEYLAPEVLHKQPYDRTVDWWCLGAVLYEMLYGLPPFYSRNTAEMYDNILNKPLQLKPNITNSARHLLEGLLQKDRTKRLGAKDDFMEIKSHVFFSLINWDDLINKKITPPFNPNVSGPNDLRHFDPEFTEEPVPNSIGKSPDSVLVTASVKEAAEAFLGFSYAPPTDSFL

[2] = molecular target: T2, panel of 255 wild-type kinases (Homo sapiens, UniProt O60285)
T2 sequence (O60285 1-661): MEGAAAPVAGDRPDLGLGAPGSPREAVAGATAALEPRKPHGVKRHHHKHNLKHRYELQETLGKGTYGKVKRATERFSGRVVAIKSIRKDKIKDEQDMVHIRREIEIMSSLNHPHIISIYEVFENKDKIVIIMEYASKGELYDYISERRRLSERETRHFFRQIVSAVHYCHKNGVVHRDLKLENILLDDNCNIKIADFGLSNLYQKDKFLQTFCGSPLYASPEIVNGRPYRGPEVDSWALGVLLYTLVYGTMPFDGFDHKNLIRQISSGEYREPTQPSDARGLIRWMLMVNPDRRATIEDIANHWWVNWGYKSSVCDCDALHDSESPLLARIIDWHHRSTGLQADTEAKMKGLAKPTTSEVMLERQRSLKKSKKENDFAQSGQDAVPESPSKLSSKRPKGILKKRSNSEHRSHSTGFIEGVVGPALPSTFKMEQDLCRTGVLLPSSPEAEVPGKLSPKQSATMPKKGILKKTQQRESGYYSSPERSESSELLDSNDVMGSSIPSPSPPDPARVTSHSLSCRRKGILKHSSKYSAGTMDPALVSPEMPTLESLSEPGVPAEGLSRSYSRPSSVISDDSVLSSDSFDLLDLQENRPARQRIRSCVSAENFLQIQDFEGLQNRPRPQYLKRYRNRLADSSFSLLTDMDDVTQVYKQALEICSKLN

[3] = molecular target: panel of 255 wild-type kinases (Homo sapiens, UniProt P06239)
[4] = molecular target: panel of 255 wild-type kinases (Homo sapiens, UniProt P09769)
[5] = molecular target: panel of 255 wild-type kinases (Homo sapiens, UniProt P16234)
[6] = molecular target: panel of 255 wild-type kinases (Homo sapiens, UniProt Q16620)
[7] = molecular target: panel of 255 wild-type kinases (Homo sapiens, UniProt Q8N568)
[8] = molecular target: T3, panel of 255 wild-type kinases (Homo sapiens, UniProt Q96PF2)
T3 sequence (Q96PF2 1-358): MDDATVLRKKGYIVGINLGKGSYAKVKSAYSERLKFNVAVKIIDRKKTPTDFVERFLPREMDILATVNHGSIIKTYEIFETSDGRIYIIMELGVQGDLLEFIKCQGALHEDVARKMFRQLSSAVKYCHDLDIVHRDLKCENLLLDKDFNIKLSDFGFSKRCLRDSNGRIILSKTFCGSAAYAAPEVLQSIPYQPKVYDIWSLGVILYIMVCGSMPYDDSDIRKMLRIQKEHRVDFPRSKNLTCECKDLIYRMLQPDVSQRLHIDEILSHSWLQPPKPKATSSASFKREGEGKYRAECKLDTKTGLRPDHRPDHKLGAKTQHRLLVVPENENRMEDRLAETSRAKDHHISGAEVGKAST

[9] = molecular target: panel of 255 wild-type kinases (Homo sapiens, UniProt Q9HC98)
[10] = molecular target: panel of 255 wild-type kinases (Homo sapiens, UniProt Q9P1W9)
[11] = molecular target: panel of 255 wild-type kinases (Homo sapiens, UniProt Q9P289)
[12] = molecular target: panel of 255 wild-type kinases (Homo sapiens, UniProt Q9UBS0)
[13] = molecular target: panel of 255 wild-type kinases (Homo sapiens, UniProt Q9Y5S2)
[14] = kinase SGK, 1 µmol/L single concentration, ref DOI: 10.1158/1535-7163.MCT-18-0877
[15] = NuaK1, 1 µmol/L single concentration, ref DOI: 10.1158/1535-7163.MCT-18-0877
[16] = kinase LCK, 1 µmol/L single concentration, ref DOI: 10.1158/1535-7163.MCT-18-0877
[17] = kinase FGR, 1 µmol/L single concentration, ref DOI: 10.1158/1535-7163.MCT-18-0877
[18] = kinase PDGFRα, 1 µmol/L single concentration, ref DOI: 10.1158/1535-7163.MCT-18-0877
[19] = kinase TRKB, 1 µmol/L single concentration, ref DOI: 10.1158/1535-7163.MCT-18-0877
[20] = kinase DCAMKL2, 1 µmol/L single concentration, ref DOI: 10.1158/1535-7163.MCT-18-0877
[21] = kinase TSSK2, 1 µmol/L single concentration, ref DOI: 10.1158/1535-7163.MCT-18-0877
[22] = NEK6, 1 µmol/L single concentration, ref DOI: 10.1158/1535-7163.MCT-18-0877
[23] = kinase PIM2, 1 µmol/L single concentration, ref DOI: 10.1158/1535-7163.MCT-18-0877
[24] = MST4, 1 µmol/L single concentration, ref DOI: 10.1158/1535-7163.MCT-18-0877
[25] = p70S6Kβ, 1 µmol/L single concentration, ref DOI: 10.1158/1535-7163.MCT-18-0877
[26] = MRCKβ, 1 µmol/L single concentration, ref DOI: 10.1158/1535-7163.MCT-18-0877
[27] = kinase SGK, 1 µmol/L single concentration, ref DOI: 10.1371/journal.pone.0092146
[28] = NuaK1, 1 µmol/L single concentration, ref DOI: 10.1371/journal.pone.0092146
[29] = kinase LCK, 1 µmol/L single concentration, ref DOI: 10.1371/journal.pone.0092146
[30] = kinase FGR, 1 µmol/L single concentration, ref DOI: 10.1371/journal.pone.0092146
[31] = kinase PDGFRα, 1 µmol/L single concentration, ref DOI: 10.1371/journal.pone.0092146
[32] = kinase TRKB, 1 µmol/L single concentration, ref DOI: 10.1371/journal.pone.0092146
[33] = kinase DCAMKL2, 1 µmol/L single concentration, ref DOI: 10.1371/journal.pone.0092146
[34] = kinase TSSK2, 1 µmol/L single concentration, ref DOI: 10.1371/journal.pone.0092146
[35] = NEK6, 1 µmol/L single concentration, ref DOI: 10.1371/journal.pone.0092146
[36] = kinase PIM2, 1 µmol/L single concentration, ref DOI: 10.1371/journal.pone.0092146
[37] = MST4, 1 µmol/L single concentration, ref DOI: 10.1371/journal.pone.0092146
[38] = p70S6Kβ, 1 µmol/L single concentration, ref DOI: 10.1371/journal.pone.0092146
[39] = MRCKβ, 1 µmol/L single concentration, ref DOI: 10.1371/journal.pone.0092146

SMILES	%-inhibition at 1 µmol/L, SGK [1, 14] [%]	%-inhibition, NuaK1 [2, 15] [%]	%-inhibition at 1 µmol/L, LCK [3, 16] [%]	%-inhibition at 1 µmol/L, FGR [4, 17] [%]	%-inhibition at 1 µmol/L, PDGFRα [5, 18] [%]	%-inhibition at 1 µmol/L, TRKB [6, 19] [%]	%-inhibition at 1 µmol/L, DCAMKL2 [7, 20] [%]	%-inhibition at 1 µmol/L, TSSK2 [8, 21] [%]	%-inhibition, NEK6 [9, 22] [%]	%-inhibition at 1 µmol/L, PIM2 [10, 23] [%]	%-inhibition, MST4 [11, 24] [%]	%-inhibition, p70S6Kβ [12, 25] [%]	%-inhibition, MRCKβ [13, 26] [%]	%-inhibition at 1 µmol/L, SGK [1, 27] [%]	%-inhibition, NuaK1 [2, 28] [%]	%-inhibition at 1 µmol/L, LCK [3, 29] [%]	%-inhibition at 1 µmol/L, FGR [4, 30] [%]	%-inhibition at 1 µmol/L, PDGFRα [5, 31] [%]	%-inhibition at 1 µmol/L, TRKB [6, 32] [%]	%-inhibition at 1 µmol/L, DCAMKL2 [7, 33] [%]	other results
O=C(c1ccc(F)c(F)c1Nc1ccc(I)cc1F)N1CC(O)([C@@H]2CCCCN2)C1 [cobimetinib]	-19	2.32	-3	-1.29	11	-1.39	-9	-2.33	1.81	-4.45	-0.477	5.59	0.0776								
CC(C)(C)c1nc(-c2cccc(NS(=O)(=O)c3c(F)cccc3F)c2F)c(-c2ccnc(N)n2)s1 [dabrafenib]														4	7	83	82	63	86	19	%-inhibition at 1 µmol/L, TSSK2 [8, 34]: -1.73%; %-inhibition, NEK6 [9, 35]: -3%; %-inhibition at 1 µmol/L, PIM2 [10, 36]: 0.238%; %-inhibition, MST4 [11, 37]: -7%; %-inhibition, p70S6Kβ [12, 38]: -0.554%; %-inhibition, MRCKβ [13, 39]: -2.85%
Cc1cc(Nc2ncc(Cl)c(Nc3ccccc3S(=O)(=O)C(C)C)n2)c(OC(C)C)cc1C1CCNCC1 [ceritinib]	2	17	6	5	61	20	85	75	0.593	-8	4	70	-0.678								
CCc1cc2c(cc1N1CCC(N3CCOCC3)CC1)C(C)(C)c1[nH]c3cc(C#N)ccc3c1C2=O [alectinib]	12	-19	20	40	43	38	7	7	1.43	2.36	-7	9	-5								
CCCS(=O)(=O)Nc1ccc(F)c(C(=O)c2c[nH]c3ncc(-c4ccc(Cl)cc4)cc23)c1F [vemurafenib]														-0.122	4	81	93	87	11	-3.52	%-inhibition at 1 µmol/L, TSSK2 [8, 34]: -11%; %-inhibition, NEK6 [9, 35]: -1.43%; %-inhibition at 1 µmol/L, PIM2 [10, 36]: -2%; %-inhibition, MST4 [11, 37]: -4.62%; %-inhibition, p70S6Kβ [12, 38]: 0.235%; %-inhibition, MRCKβ [13, 39]: -5%
COc1cc(N2CCC(N3CCN(C)CC3)CC2)ccc1Nc1ncc(Cl)c(Nc2ccccc2P(C)(C)=O)n1 [brigatinib]																					%-inhibition at 1 µmol/L, SGK [1]: 4.76%; %-inhibition, NuaK1 [2]: 90%; %-inhibition at 1 µmol/L, LCK [3]: 77%; %-inhibition at 1 µmol/L, FGR [4]: 52%; %-inhibition at 1 µmol/L, PDGFRα [5]: 96%; %-inhibition at 1 µmol/L, TRKB [6]: 27%; %-inhibition at 1 µmol/L, DCAMKL2 [7]: 52%; %-inhibition at 1 µmol/L, TSSK2 [8]: 79%; %-inhibition, NEK6 [9]: 0.534%; %-inhibition at 1 µmol/L, PIM2 [10]: -11%; %-inhibition, MST4 [11]: -1.25%; %-inhibition, p70S6Kβ [12]: 98%; %-inhibition, MRCKβ [13]: 38%
CC(=O)Nc1cccc(-n2c(=O)n(C3CC3)c(=O)c3c(Nc4ccc(I)cc4F)n(C)c(=O)c(C)c32)c1 [trametinib]														0.217	-0.634	-7	-9	4.53	-3.4	-2.4	%-inhibition at 1 µmol/L, TSSK2 [8, 34]: -1.73%; %-inhibition, NEK6 [9, 35]: -0.324%; %-inhibition at 1 µmol/L, PIM2 [10, 36]: -4%; %-inhibition, MST4 [11, 37]: -2.23%; %-inhibition, p70S6Kβ [12, 38]: -1%; %-inhibition, MRCKβ [13, 39]: -2.56%
